This assay has as its system human fibroblasts (ATCC-CRL-2703). Kind of assay: Fibroblast proliferation, MTT coloration. It is filed as cell-based. The procedure: These supramolecular complexes were tested to evaluate the stimulatory activity on human fibroblasts (ATCC-CRL-2703). […] Cells were exposed to each complex for 24 and 48 hours (medium was replaced every 24 h) at 37° C. and 5% CO2. At the end of incubation period, MTT coloration was performed in order to evaluate cell viability and the increasing proliferating rate compared to untreated control cells. For each determination 6 tests were carried out. After exposure, cells were washed with […] of PBS, then 200 μl of MTT-medium are added to each culture well and incubated for 4 hours at 37° C. and 5% CO2. MTT medium is then removed and 200 μl of MTT dissolving solution (10% Triton X-100 and 0.1 N HCl in dry isopropanol) were added. After shaking on a rotating plate for 20-30′ to dissolve crystals and homogenize the solution, absorbance was read at 570 nm; background reading at 690 nm.

The record followed here is patent US20160101067A1, “SUPRAMOLECULAR COMPLEXES OF POLYANIONIC POLYMERS AND SPERMIDINE IN TISSUE MAINTENANCE AND REPAIR” (TIXUPHARMA, priority 2013, published 2016).

For `NCCCCNCCCN` [Spermidine (Spd) 3HCl, N-(3-aminopropyl)-1,4-butanediamine], the “% Proliferative increase at 24 h” value is 31.86% (Spd 3HCl 10 nM); 26.27% (Spd 3HCl 100 nM); 7.55% (Spd 3HCl 1 μM); 2.3% (Spd 3HCl 10 μM); 1.31% (Spd 3HCl 100 μM); −0.16% (Spd 3HCl 1 mM). Further, the “% Proliferative increase at 24 h” value (Spd 3HCl 10 mM) was −9.85%. Further, the “% Proliferative increase at 48 h” value (Spd 3HCl 10 nM) stood at 35.96%; the “% Proliferative increase at 48 h” value (Spd 3HCl 100 nM) is on record as 29.39%; the “% Proliferative increase at 48 h” value (Spd 3HCl 1 μM) is listed as 13.01%; the “% Proliferative increase at 48 h” value (Spd 3HCl 10 μM) is 8.48%; the “% Proliferative increase at 48 h” value (Spd 3HCl 100 μM) is 4.09%; the “% Proliferative increase at 48 h” value (Spd 3HCl 1 mM) was −3.22%. Also, the “% Proliferative increase at 48 h” value (Spd 3HCl 10 mM) is −9.5%. The “effect on fibroblast proliferation at mmolar concentration” value (mmolar concentration) is on record as “suppressive effect”. For the same compound, the “pattern of the proliferative effect over concentration” value (serial dilution) is “bimodal pattern”. For the same compound, the “effect on fibroblast proliferation at μmolar or nmolar levels” value (μmolar or nmolar levels) is “positive effect”.
